Experimental data: BindingDB's records for patent US11440904 (2022)

Target: Tyrosine-protein kinase BTK (Homo sapiens, UniProt Q06187)
Sequence (Q06187 whole entry): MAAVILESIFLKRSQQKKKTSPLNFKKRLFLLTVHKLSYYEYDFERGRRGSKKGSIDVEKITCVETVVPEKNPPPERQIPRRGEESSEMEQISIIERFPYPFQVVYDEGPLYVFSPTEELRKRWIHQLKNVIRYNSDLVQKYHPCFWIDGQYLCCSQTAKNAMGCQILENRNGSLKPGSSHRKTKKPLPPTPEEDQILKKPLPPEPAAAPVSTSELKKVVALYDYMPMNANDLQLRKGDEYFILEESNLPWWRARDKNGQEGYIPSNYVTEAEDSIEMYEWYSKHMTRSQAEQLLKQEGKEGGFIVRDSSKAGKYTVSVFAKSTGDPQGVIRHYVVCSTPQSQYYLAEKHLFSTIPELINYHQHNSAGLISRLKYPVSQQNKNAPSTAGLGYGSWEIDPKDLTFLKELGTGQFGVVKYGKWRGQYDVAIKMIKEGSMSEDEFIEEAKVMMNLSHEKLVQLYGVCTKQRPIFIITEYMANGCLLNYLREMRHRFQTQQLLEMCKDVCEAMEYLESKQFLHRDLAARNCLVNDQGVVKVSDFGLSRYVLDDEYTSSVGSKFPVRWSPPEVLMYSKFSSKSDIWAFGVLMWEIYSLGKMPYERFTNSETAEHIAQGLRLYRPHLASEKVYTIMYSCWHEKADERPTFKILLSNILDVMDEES
Method: Then, Kinase assays were performed using the HotSpot assay platform.Briefly, specific kinase/substrate pairs along with required cofactors were prepared in reaction buffer; 20 mM Hepes pH 7.5, 10 mM MgCl2, 1 mM EGTA, 0.02% Brij35, 0.02 mg/ml BSA, 0.1 mM Na3VO4, 2 mM DTT, 1% DMSO. Compounds were delivered into the reaction, followed about 20 minutes later by addition of a mixture of ATP (Sigma, St. Louis Mo.) and 33P ATP (Perkin Elmer, Waltham Mass.) to a final concentration of 10 μM.Reactions were carried out at room temperature for 120 min, followed by spotting of the reactions onto P81 ion exchange filter paper (Whatman Inc., Piscataway, N.J.). Unbound phosphate was removed by extensive washing of filters in 0.75% phosphoric acid. […] IC50 values and curve fits were obtained using Prism (GraphPad Software).

C=CC(=O)Nc1ccccc1Nc1nc(Nc2ccc(OCCCOC3(CC)OCC(C)(C)CO3)cc2)ncc1F [US11440904, Compound 9]
IC50: > 100 nM
